Data reported in PubChem BioAssay (NCI).
“And” between values parts separate entries of the source, which are not always exact repeats. Equal values may be shown once.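 Growth conditions: 96-well plates. Treatment: test compound, 48 hours, 5 concentrations. Analysis: linear interpolation between bracketing concentrations; unreached endpoints set to highest concentration. GI50: concentration for 50% inhibition of growth. The concentration for full growth arrest is given as TGI.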

Legend:
Test in all cases: DTP human tumour cell line panel, 48 h
[1] = test system: 786-0 renal
[2] = test system: A498 renal
[3] = test system: A549 NSCLC
[4] = test system: ACHN renal
[5] = test system: BT-549 breast
[6] = test system: CAKI-1 renal
[7] = test system: CCRF-CEM leukemia
[8] = test system: COLO 205 colon
[9] = test system: DU-145 prostate
[10] = test system: EKVX NSCLC
[11] = test system: HCC-2998 colon
[12] = test system: HCT-116 colon
[13] = test system: HCT-15 colon
[14] = test system: HL-60(TB) leukemia
[15] = test system: HOP-62 NSCLC
[16] = test system: HOP-92 NSCLC
[17] = test system: HS 578T breast
[18] = test system: HT29 colon
[19] = test system: IGROV1 ovarian
[20] = test system: K-562 leukemia
[21] = test system: KM12 colon
[22] = test system: LOX IMVI melanoma
[23] = test system: M14 melanoma
[24] = test system: MALME-3M melanoma
[25] = test system: MCF7 breast
[26] = test system: MDA-MB-231 breast
[27] = test system: MDA-MB-435
[28] = test system: MOLT-4 leukemia
[29] = test system: NCI-H226 lung
[30] = test system: NCI-H23 lung

`CC(C)C[C@@H](NC(=O)[C@@H](Cc1ccccc1)NC(=O)c1cnccn1)B1O[C@H]2[C@H](O)[C@@H](C(=O)NCCCC[C@@H]3NC(=O)[C@@H](Cc4ccccc4)NC(=O)[C@H](CC(=O)O)NC(=O)CNC(=O)[C@H](CCCN=C(N)N)NC3=O)O[C@@H](CN)[C@H]2O1` was tested, and the GI50 [1] was 4.65 nM and 5 nM, the GI50 [2] was 3.09 nM and 5 nM and the TGI [2] was 12.7 nM and 10.6 nM. For the same compound, the GI50 [3] was 28.8 nM and 14.8 nM, the TGI [3] was 658 nM and the GI50 [4] was 4.49 nM and 5 nM. For the same compound, the TGI [4] was 494 nM and 153 nM, the GI50 [5] was 3 nM and 5 nM and the TGI [5] was 11.2 nM and 11.3 nM. For the same compound, the GI50 [6] was 7.68 nM and 14.8 nM, the TGI [6] was 52.5 nM and 90.5 nM and the GI50 [7] was 3.47 nM and 5 nM. The GI50 [8] was 26.2 nM and 5 nM, the TGI [8] was 373 nM and 119 nM and the GI50 [9] was 6.62 nM and 5 nM. The TGI [9] was 5360 nM, the GI50 [10] was 23.9 nM and 17.1 nM and the TGI [10] was 568 nM and 545 nM. The GI50 [11] was 16 nM and 7.99 nM, the TGI [11] was 32.3 nM and 16.5 nM and the GI50 [12] was 3.39 nM and 5 nM. The TGI [12] was 18.2 nM and 10.3 nM, the GI50 [13] was 11.3 nM and 7.03 nM and the TGI [13] was 65.9 nM and 37.6 nM. The GI50 [14] was 10.2 nM and 5 nM, the TGI [14] was 69.8 nM and 74.3 nM and the GI50 [15] was 12.5 nM and 18.9 nM. The GI50 [16] was 10.8 nM and 5.48 nM, the TGI [16] was 56.5 nM and 23.6 nM and the GI50 [17] was 4.13 nM and 5 nM. The GI50 [18] was 4.18 nM and 5 nM, the TGI [18] was 32.5 nM and 7.63 nM and the GI50 [19] was 31.2 nM and 21.4 nM. The TGI [19] was 254 nM and 1030 nM, the GI50 [20] was 8.8 nM and 5 nM and the GI50 [21] was 13.1 nM and 5.7 nM. For the same compound, the TGI [21] was 43.7 nM and 17.7 nM, the GI50 [22] was 3.97 nM and 5 nM and the TGI [22] was 15.9 nM and 5.8 nM. The GI50 [23] was 3.92 nM and 5 nM, the TGI [23] was 116 nM and 14.1 nM and the GI50 [24] was 4.57 nM and 5 nM. The TGI [24] was 127 nM and 591 nM, the GI50 [25] was 4.13 nM and 5 nM and the TGI [25] was 789 nM. For the same compound, the GI50 [26] was 12.4 nM and 8.28 nM, the TGI [26] was 57.4 nM and 69.2 nM and the GI50 [27] was 2.87 nM and < 5 nM. The TGI [27] was 8.91 nM and < 5 nM, the GI50 [28] was 2.74 nM and the TGI [28] was 9.31 nM. For the same compound, the GI50 [29] was 2.78 nM, the TGI [29] was 7.7 nM and the GI50 [30] was 10.8 nM and 5 nM. For the same compound, the TGI [30] was 94.3 nM and 53.7 nM.
